Results: US12570642B2, “GLP-IR modulating compounds” (Gilead Sciences, Inc., priority 2021, dated 2026)

Biological target: GLP-1R (Homo sapiens, UniProt P43220)
Test: GLP-1R Activation - cAMP Assay
Format: cell-based
Details: each compound run on one of the two cAMP assays (Assay 1 or Assay 2, not specified)
In short: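 CHO cells stably expressing GLP-1R, plated at 1,000 cells/well overnight, then equilibrated 1 h in HBSS with 20 mM Hepes and 0.1% BSA. Agonist added as 10-point dose response for 30 min at 37 °C. cAMP measured by HTRF (Cisbio Gs Dynamic kit); EC50 from sigmoidal fit.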

[1] = cAMP increase in CHO cells stably expressing GLP-1R

GLP-1R, sequence (P43220 24-463): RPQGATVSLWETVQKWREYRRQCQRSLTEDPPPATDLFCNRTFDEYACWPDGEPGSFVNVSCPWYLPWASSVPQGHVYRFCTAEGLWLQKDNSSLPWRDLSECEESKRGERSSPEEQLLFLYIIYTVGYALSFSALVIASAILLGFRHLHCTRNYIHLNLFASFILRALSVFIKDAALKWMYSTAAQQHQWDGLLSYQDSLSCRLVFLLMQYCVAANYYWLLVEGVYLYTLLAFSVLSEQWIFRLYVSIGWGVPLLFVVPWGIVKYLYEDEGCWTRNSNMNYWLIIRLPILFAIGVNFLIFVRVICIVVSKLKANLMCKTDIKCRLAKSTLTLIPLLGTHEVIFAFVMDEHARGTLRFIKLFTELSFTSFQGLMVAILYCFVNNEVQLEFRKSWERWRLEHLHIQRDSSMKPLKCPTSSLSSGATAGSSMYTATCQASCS

SMILES | EC50 [1] | EC50 ([…])
O=C(O)c1ccc2nc(Cc3cc(F)c(-c4cccc(OCc5ccc6c(c5)CN(C(=O)C5CC5)C6)n4)cc3F)n(C[C@@H]3CCO3)c2c1 [Example 520, (S)-2-(4-(6-((2-(cyclopropanecarbonyl)isoindolin-5-yl)methoxy)pyridin-2-yl)-2,5-difluorobenzyl)-1-(oxetan-2-ylmethyl)-1H-benzo[d]imidazole-6-carboxylic acid] | 0.27 nM | –
CC1(C)COC[C@H]1n1c(Cc2cc(F)c(-c3cccc(OCc4ccc(-n5cncn5)cc4)n3)cc2F)nc2ccc(C(=O)O)cc21 [Example 448, (S)-2-(4-(6-((4-(1H-1,2,4-triazol-1-yl)benzyl)oxy)pyridin-2-yl)-2,5-difluorobenzyl)-1-(4,4-dimethyltetrahydrofuran-3-yl)-1H-benzo[d]imidazole-6-carboxylic acid] | 0.352 nM | –
COCCn1c(Cc2c(F)cc(-c3cccc(OCc4ccc(-n5ccnn5)nc4)n3)c(F)c2F)nc2c(F)cc(C(=O)O)cc21 [Example 253, 2-(4-(6-((6-(1H-1,2,3-triazol-1-yl)pyridin-3-yl)methoxy)pyridin-2-yl)-2,3,6-trifluorobenzyl)-4-fluoro-1-(2-methoxyethyl)-1H-benzo[d]imidazole-6-carboxylic acid] | 0.071 nM | –
CC1(C)COC[C@H]1n1c(Cc2cc(F)c(-c3ccc(F)c(OCc4cnc(-n5ccnn5)cc4Cl)c3)cc2F)nc2ccc(C(=O)O)cc21 [Example 388, (S)-2-((3′-((4-chloro-6-(1H-1,2,3-triazol-1-yl)pyridin-3-yl)methoxy)-2,4′,5-trifluoro-[1,1′-biphenyl]-4-yl)methyl)-1-(4,4-dimethyltetrahydrofuran-3-yl)-1H-benzo[d]imidazole-6-carboxylic acid] | 0.053 nM | –
O=C(O)c1cc(F)c2nc(Cc3cc(F)c(-c4cccc(OCc5ccc(Cl)cc5F)n4)cc3F)n(C3COCC34CC4)c2c1 (stereo not drawn) [Example 220, 2-(4-(6-((4-chloro-2-fluorobenzyl)oxy)pyridin-2-yl)-2,5-difluorobenzyl)-4-fluoro-1-(5-oxaspiro[2.4]heptan-7-yl)-1H-benzo[d]imidazole-6-carboxylic acid] | 0.216 nM | –
COCCn1c(Cc2cc(F)c(-c3cccc(OCc4ccc(-c5cncn5C)cc4F)n3)cc2F)nc2ccc(C(=O)O)cc21 [Example 113] | 11 nM | –
COCCn1c(Cc2cc(F)c(-c3cc(O)cc(OCc4ccc(C#N)cc4F)n3)cc2F)nc2ccc(C(=O)O)cc21 [Example 44, 2-(4-(6-((4-cyano-2-fluorobenzyl)oxy)-4-hydroxypyridin-2-yl)-2,5-difluorobenzyl)-1-(2-methoxyethyl)-1H-benzo[d]imidazole-6-carboxylic Acid] | 0.81 nM | –
CC1(C)COCC1n1c(Cc2cc(F)c(-c3cccc(OCc4cnc(-n5ccnc5)cc4Cl)n3)cc2F)nc2c(F)cc(C(=O)O)cc21 (stereo not drawn) [Example 174, 2-(4-(6-((4-chloro-6-(1H-imidazol-1-yl)pyridin-3-yl)methoxy)pyridin-2-yl)-2,5-difluorobenzyl)-1-(4,4-dimethyltetrahydrofuran-3-yl)-4-fluoro-1H-benzo[d]imidazole-6-carboxylic Acid] | 0.051 nM | –
Cc1cc(Cc2nc3ccc(C(=O)O)cc3n2[C@@H]2COCC2(C)C)c(Cl)cc1-c1ccnc(OCc2ccc(Cl)cc2)n1 [Example 218, (S)-2-(2-chloro-4-(2-((4-chlorobenzyl)oxy)pyrimidin-4-yl)-5-methylbenzyl)-1-(4,4-dimethyltetrahydrofuran-3-yl)-1H-benzo[d]imidazole-6-carboxylic acid] | 0.279 nM | –
COCCn1c(C(F)(F)c2cc(F)c(-c3cccc(OCc4ccc(C#N)cc4F)n3)cc2F)nc2ccc(C(=O)O)cc21 [Example 52] | 21.3 nM | –
CC(=O)N1C[C@H](n2c(Cc3cc(F)c(-c4cccc(OCc5ccc(C#N)cc5F)n4)cc3F)nc3ccc(C(=O)O)cc32)C2(CC2)C1 [Example 14] | – | 78.7 nM
CO[C@@]1(C)COC[C@@H]1n1c(Cc2cc(F)c(-c3cccc(OCc4ccc(C#N)cc4F)n3)cc2F)nc2ccc(C(=O)O)cc21 (single isomer, unassigned) [Example 313] | 1.14 nM | –
CC1(C)COC[C@H]1n1c(Cc2cc(F)c(-c3cccc(OCc4ccc(C#N)cc4F)n3)cc2F)nc2cnc(C(=O)O)cc21 [Example 422, (S)-2-(4-(6-((4-cyano-2-fluorobenzyl)oxy)pyridin-2-yl)-2,5-difluorobenzyl)-1-(4,4-dimethyltetrahydrofuran-3-yl)-1H-imidazo[4,5-c]pyridine-6-carboxylic acid] | 3.16 nM | –
CC1(C)COC[C@H]1n1c(Cc2cc(F)c(-c3ccnc(OCc4ccc(C#N)cc4)n3)cc2F)nc2c(F)cc(C(=O)O)cc21 [Example 194, (S)-2-(4-(2-((4-cyanobenzyl)oxy)pyrimidin-4-yl)-2,5-difluorobenzyl)-1-(4,4-dimethyltetrahydrofuran-3-yl)-4-fluoro-1H-benzo[d]imidazole-6-carboxylic acid] | 0.265 nM | –
COCCn1c(Cc2cc(F)c(-c3cccc(OCc4ccc(C#N)cc4F)n3)cc2Cl)nc2c(F)cc(C(=O)O)cc21 [Example 351, 2-(2-chloro-4-(6-((4-cyano-2-fluorobenzyl)oxy)pyridin-2-yl)-5-fluorobenzyl)-4-fluoro-1-(2-methoxyethyl)-1H-benzo[d]imidazole-6-carboxylic acid] | 0.074 nM | –
COCCOCCOCCn1cc(-c2ccc(COc3cccc(-c4cc(F)c(Cc5nc6ccc(C(=O)O)cc6n5CCOC)cc4F)n3)c(F)c2)cn1 [Example 98] | 1.43 nM | –
CO[C@H]1COC[C@H]1n1c(Cc2cc(F)c(-c3cccc(OCc4ccc(C#N)cc4F)n3)cc2F)nc2ccc(C(=O)O)cc21 (single isomer, unassigned) [Example 276] | 0.108 nM | –
COc1nnc(COc2cccc(-c3ccc(Cc4nc5c(F)cc(C(=O)O)cc5n4[C@@H]4COCC4(C)C)c(F)c3)n2)s1 [Example 309, (S)-1-(4,4-dimethyltetrahydrofuran-3-yl)-4-fluoro-2-(2-fluoro-4-(6-((5-methoxy-1,3,4-thiadiazol-2-yl)methoxy)pyridin-2-yl)benzyl)-1H-benzo[d]imidazole-6-carboxylic acid] | 0.368 nM | –
Cc1cc(COc2cccc(-c3cc(F)c(Cc4nc5ccc(C(=O)O)cc5n4[C@@H]4COCC4(C)C)cc3F)n2)c(F)cc1Cl [Example 450, (S)-2-(4-(6-((4-chloro-2-fluoro-5-methylbenzyl)oxy)pyridin-2-yl)-2,5-difluorobenzyl)-1-(4,4-dimethyltetrahydrofuran-3-yl)-1H-benzo[d]imidazole-6-carboxylic acid] | 1.04 nM | –
CC1(C)COC[C@H]1n1c(Cc2cc(F)c(-c3ccc(F)c(OCc4ccc(-n5ccnn5)cc4)n3)cc2F)nc2c(F)cc(C(=O)O)cc21 [Example 177, (S)-2-(4-(6-((4-(1H-1,2,3-triazol-1-yl)benzyl)oxy)-5-fluoropyridin-2-yl)-2,5-difluorobenzyl)-1-(4,4-dimethyltetrahydrofuran-3-yl)-4-fluoro-1H-benzo[d]imidazole-6-carboxylic Acid] | 0.021 nM | –
COC[C@]1(C)COCC1n1c(Cc2cc(F)c(-c3cccc(OCc4ccc(Cl)cc4F)n3)cc2F)nc2ccc(C(=O)O)cc21 (stereo in doubt) [Example 549, 2-(4-(6-((4-chloro-2-fluorobenzyl)oxy)pyridin-2-yl)-2,5-difluorobenzyl)-1-((3R,4S)-4-(methoxymethyl)-4-methyltetrahydrofuran-3-yl)-1H-benzo[d]imidazole-6-carboxylic acid] | 0.727 nM | –
Cc1cc(Cc2nc3ccc(C(=O)O)cc3n2C[C@@H]2CCO2)c(Cl)cc1-c1ccc(F)c(OCc2ccc(C#N)cc2F)n1 [Example 144, (S)-2-(2-chloro-4-(6-((4-cyano-2-fluorobenzyl)oxy)-5-fluoropyridin-2-yl)-5-methylbenzyl)-1-(oxetan-2-ylmethyl)-1H-benzo[d]imidazole-6-carboxylic Acid] | 1.08 nM | –
CC1(C)COC[C@H]1n1c(Cn2cc(F)c(-c3cccc(OCc4ccc(Cl)cc4)n3)cc2=O)nc2ccc(C(=O)O)cc21 [Example 297, (S)-2-((6-((4-chlorobenzyl)oxy)-5′-fluoro-2′-oxo-[2,4′-bipyridin]-1′(2′H)-yl)methyl)-1-(4,4-dimethyltetrahydrofuran-3-yl)-1H-benzo[d]imidazole-6-carboxylic acid] | 0.151 nM | –
COCCn1c(Cc2cc(F)c(-c3cccc(OCc4cnc(-c5cnn(C)c5)cn4)n3)cc2F)nc2ccc(C(=O)O)cc21 [Example 38, 2-(2,5-difluoro-4-(6-((5-(1-methyl-1H-pyrazol-4-yl)pyrazin-2-yl)methoxy)pyridin-2-yl)benzyl)-1-(2-methoxyethyl)-1H-benzo[d]imidazole-6-carboxylic Acid] | 4.02 nM | –
CC1(C)COC[C@H]1n1c(Cc2cc(F)c(-c3cccc(OCc4ccc(C#N)cc4)n3)cc2F)nc2c(F)cc(C(=O)O)cc21 [Example 376, (S)-2-(4-(6-((4-cyanobenzyl)oxy)pyridin-2-yl)-2,5-difluorobenzyl)-1-(4,4-dimethyltetrahydrofuran-3-yl)-4-fluoro-1H-benzo[d]imidazole-6-carboxylic acid] | 0.056 nM | –
CC1(C)COC[C@H]1n1c(Cc2cc(F)c(-c3cccc(OCc4ccc(Cl)cc4F)n3)cc2F)nc2cc(O)c(C(=O)O)cc21 [Example 400, (S)-2-(4-(6-((4-chloro-2-fluorobenzyl)oxy)pyridin-2-yl)-2,5-difluorobenzyl)-1-(4,4-dimethyltetrahydrofuran-3-yl)-5-hydroxy-1H-benzo[d]imidazole-6-carboxylic acid] | 0.44 nM | –
N#Cc1ccc(COc2cccc(-c3cc(F)c(Cc4nc5ccc(C(=O)O)cc5n4[C@@H]4COC[C@@H]4OCC(F)F)cc3F)n2)c(F)c1 [Example 540, 2-(4-(6-((4-cyano-2-fluorobenzyl)oxy)pyridin-2-yl)-2,5-difluorobenzyl)-1-((3R,4R)-4-(2,2-difluoroethoxy)tetrahydrofuran-3-yl)-1H-benzo[d]imidazole-6-carboxylic acid] | 0.052 nM | –
